{
  "source": "paper PMC12116762",
  "about": "“Topobexin targets the Topoisomerase II ATPase domain for beta isoform-selective inhibition and anthracycline cardioprotection” (Nature Communications, 2025)",
  "key": {"[1]": {"tested_on": "HL-60 cell line", "experiment": "Antiproliferative activity and interference with DAU (MTT), HL-60", "assay_type": "cell-based, human", "details": "for HL-60 proliferation (MTT), mean of independent replicates: Suppl.Fig.8c", "method": "Antiproliferative effects of studied compounds alone or in combination with DAU were assayed, as described previously, using HL-60 cell line (ATCC® Catalog Number: CCL-240TM, lot 5036502; American Type Culture Collection, Manassas, VA) derived from a patient with acute promyelocytic leukaemia. The cells were cultured in RPMI-1640 medium supplemented with 10% FBS, 50 U/mL penicillin, and 50 μg/mL streptomycin solution at 37 °C in a humidified atmosphere of 5% CO2. For the experiments, cells were seeded on 96-well plates (TPP, Switzerland) at a density of 10,000 cells per well ([…]). […] Proliferation was assessed by the MTT assay. Briefly, 25 µL of 3 mg/mL MTT solution (3(4,5-dimethyl-2-thiazolyl)-2,5-diphenyl-2H-tetrazolium bromide) in PBS was added to each well, and after 2 h of incubation at 37 °C the cells were lysed with lysis buffer (isopropanol, 0.1 M HCl, 5% Triton X-100) for 30 minutes at RT. After the formazan was dissolved, the absorbance of the samples was measured at 570 nm and a reference wavelength at 690 nm (the 690 nm background absorbance was subtracted from the 570 nm values). Data are expressed as mean ± SD from four independent experiments. Normalized values were plotted as a function of inhibitor concentration to determine IC50 values using Prism 9 (GraphPad). Statistical significance was evaluated by ANOVA with the Holm-Sidak post hoc test (P ≤ 0.05, marked as significant difference against control (c) or DAU (d))."}, "[2]": {"tested_on": "γH2AX", "experiment": "γH2AX levels in NVCM (Western blotting)", "assay_type": "cell-based, rat", "set-up": "γH2AX level, mean: scale not given here", "details": "for γH2AX level: independent replicates", "method": "TOP2B and γH2AX levels in NVCM were determined as follows. After incubation, 4 × 10^5 rat neonatal cardiomyocytes were lysed with 75 µL of 2% SDS in 0.1 M Tris (pH 7.4) and boiled at 95 °C for 5 min. The protein content of each sample was determined by the BCA method and 10 μg of total protein were loaded onto a polyacrylamide gel (7.5% for TOP2B, 12% for γH2AX, Bio-Rad TGX stain-free gels). After approximately 75 min of electrophoresis (150 V, Bio-Rad Mini-PROTEAN Tetra Cell), the gels were transblotted onto nitrocellulose membranes using a semi-dry method in Transblot Turbo (Bio-Rad, USA). The next day, the membranes were blocked for 1 h in 5% skimmed milk powder in 0.05% TBS-T at room temperature (RT). For TOP2 analysis, membranes were incubated with rabbit anti-TOP2A/B (1:2,000, ab109524, Abcam, UK) in 1% BSA in PBS for 1 h at RT, washed 6 times for 5 min in 0.05% TBS-T and then incubated with HRP-labeled F(ab’)2 goat anti-rabbit IgG (1:10,000, ab6112, Abcam, UK) in 0.05% TBS-T for 1 h RT and washed again (6 × 5 min in 0.05% TBS-T). For γH2AX analysis, membranes were incubated with mouse anti-γH2AX (1:5,000; ab26350, Abcam, UK) in 5% BSA in PBS for 1 h at RT, washed with 0.05% PBS-T for 6 × 5 min, incubated with HRP-conjugated anti-mouse IgG (1:40,000; A9044 Sigma Aldrich, USA) in 5% BSA in PBS for 1 h RT and finally washed with 0.05% PBS-T for 6 times 5 min. Target proteins were visualized using a chemiluminescent detection substrate (Clarity Western ECL Substrate, Bio-Rad, USA) and a Gel Doc EZ with Image Lab software (Bio-Rad, USA). Full, uncropped images of all blots present in the manuscript figures are included in the source data file.\nDensitometric quantification was performed using Image Lab software (Bio-Rad). Stain-free technology was used to visualize the total protein on the gel and normalize the total protein amount in each line. Each presented data point was obtained from distinct sample."}},
  "note": "Values joined by “and” are separate entries in the source; they are usually repeats but may differ in a detail not shown here. Equal entries are not always repeated.",
  "data": [
    {"smiles": "COc1cccc2c1C(=O)c1c(O)c3c(c(O)c1C2=O)C[C@@](O)(C(C)=O)C[C@@H]3O[C@H]1C[C@H](N)[C@H](O)[C@H](C)O1", "note": "[DAU, daunorubicin, reference compound]", "values": [
      {"measurement": "HL-60 proliferation (MTT), mean of independent replicates", "setting": "[1]; DAU 1.2 µM alone", "result": 35.1587},
      {"measurement": "γH2AX level, mean", "setting": "[2]; DAU 1.2 μM alone", "result": 100},
      {"measurement": "γH2AX level", "setting": "[2]; DAU 1.2 μM alone", "result": "113.699 and 89.6209 and 76.0928 and 120.587"}
    ]},
    {"smiles": "CCCc1cc(=O)oc2c(C(=O)N3CCCc4ccccc43)c(OCCN3CCN(C)CC3)ccc12", "note": "[topobexin (9)]", "values": [
      {"measurement": "effect on antiproliferative effects of DAU", "setting": "[1]; HL-60, any concentration tested", "result": "did not decrease the antiproliferative effects of DAU"},
      {"measurement": "HL-60 proliferation (MTT), mean of independent replicates", "setting": "[1]; compound 0.01 µM + DAU 1.2 µM", "result": 39.4171},
      {"measurement": "HL-60 proliferation (MTT), mean of independent replicates", "setting": "[1]; compound 0.1 µM + DAU 1.2 µM", "result": 37.298},
      {"measurement": "HL-60 proliferation (MTT), mean of independent replicates", "setting": "[1]; compound 1 µM + DAU 1.2 µM", "result": 37.3478},
      {"measurement": "HL-60 proliferation (MTT), mean of independent replicates", "setting": "[1]; compound 10 µM + DAU 1.2 µM", "result": 18.3679},
      {"measurement": "HL-60 proliferation (MTT), mean of independent replicates", "setting": "[1]; compound 30 µM + DAU 1.2 µM", "result": 13.5189},
      {"measurement": "HL-60 proliferation (MTT), mean of independent replicates", "setting": "[1]; compound 100 µM + DAU 1.2 µM", "result": 1.772},
      {"measurement": "HL-60 proliferation (MTT), mean of independent replicates", "setting": "[1]; compound alone 0.01 µM", "result": 99.5782},
      {"measurement": "HL-60 proliferation (MTT), mean of independent replicates", "setting": "[1]; compound alone 0.1 µM", "result": 97.2193},
      {"measurement": "HL-60 proliferation (MTT), mean of independent replicates", "setting": "[1]; compound alone 1 µM", "result": 91.5968},
      {"measurement": "HL-60 proliferation (MTT), mean of independent replicates", "setting": "[1]; compound alone 10 µM", "result": 13.6521},
      {"measurement": "HL-60 proliferation (MTT), mean of independent replicates", "setting": "[1]; compound alone 30 µM", "result": 12.3063},
      {"measurement": "HL-60 proliferation (MTT), mean of independent replicates", "setting": "[1]; compound alone 100 µM", "result": 1.671},
      {"measurement": "γH2AX level, mean", "setting": "[2]; 0.1 µM + DAU 1.2 µM", "result": 39.0271},
      {"measurement": "γH2AX level", "setting": "[2]; 0.1 µM + DAU 1.2 µM", "result": "36.8376 and 42.68 and 24.34 and 52.2506"},
      {"measurement": "γH2AX level, mean", "setting": "[2]; 0.1 µM alone", "result": 2.32},
      {"measurement": "γH2AX level", "setting": "[2]; 0.1 µM alone, DAU mean 100", "result": "5.77 and 0.9222 and 2.18 and 0.4088"},
      {"measurement": "γH2AX level, mean", "setting": "[2]; 1 µM + DAU 1.2 µM", "result": 7.0222},
      {"measurement": "γH2AX level", "setting": "[2]; 1 µM + DAU 1.2 µM", "result": "17.1283 and 3.616 and 2.74 and 4.605"},
      {"measurement": "γH2AX level, mean", "setting": "[2]; 1 µM alone", "result": 3.099},
      {"measurement": "γH2AX level", "setting": "[2]; 1 µM alone", "result": "8.242 and 0.9663 and 2.352 and 0.8374"},
      {"measurement": "γH2AX level, mean", "setting": "[2]; 10 µM + DAU 1.2 µM", "result": 3.08},
      {"measurement": "γH2AX level", "setting": "[2]; 10 µM + DAU 1.2 µM", "result": "6.036 and 4.664 and 0.5024 and 1.119"},
      {"measurement": "γH2AX level, mean", "setting": "[2]; 10 µM alone", "result": 2.838},
      {"measurement": "γH2AX level", "setting": "[2]; 10 µM alone", "result": "3.615 and 3.033 and 2.846 and 1.856"},
      {"measurement": "lowest concentration tested preventing DAU-induced γH2AX", "setting": "[2]; NVCM", "result": 0.1, "unit": "µM"}
    ]}
  ]
}
